Results: patent US6391871B1 (priority 1996, dated 2002)
Entries after “also recorded” stand apart in the source; their conditions may differ. Where two headings read alike, the source gives them in different places.

Key:
[1] = test system: NMDA receptors; type: cell-based, chick
Method: Potency rating=minimum concentration required to provide total protection against neurotoxic effects of NMDA (40 μM) in chick embryo retinal tissue tests
These experiments were performed using segments of chick embryo retina. This is a widely used model for studying the production and prevention of excitotoxic phenomena, since it is a simple and inexpensive preparation, and since chick tissue provides a better model of adult mammalian neurons than embryonic or juvenile mammalian tissue. All of the glutamate receptors that mediate excitotoxic phenomena are present in chick retinas, and are sensitive to excitotoxic stimulation. By contrast, in embryonic or juvenile mammalian tissue, various glutamate receptors are not fully matured and are not responsive in the same ways that occur in adult mammalian tissue.
In these tests, NMDA is introduced into the incubation medium in a concentration ([…]) sufficient to produce a fully developed excitotoxic lesion within 30 min, displaying acute degeneration and necrosis of the majority of neurons in the inner layers of the retina. The control retinas are incubated with NMDA alone, and experimental retinas are incubated with NMDA plus a test compound that is being evaluated for NMDA antagonist properties. […] All agents that prevent NMDA from hyperactivating NMDA receptors and thereby inducing an excitotoxic neurodegenerative reaction in the chick embryo retina are considered appropriate candidate drugs for preventing NMDA receptor hyperactivation and NMDA receptor burnout in the presymptomatic stages of Alzheimer's disease.
The concentration of the test compound required to prevent NMDA from inducing neuronal degeneration in the chick retina tissue is considered a measure of its expected potency for preventing NMDA receptor hyperactivation and NMDA receptor burnout in the presymptomatic stages of Alzheimer's disease.

[2] = test system: vacuolated PC/RS neurons; experiment: Safener assay: prevention of MK-801-induced vacuole formation in PC/RS neurons; conditions: for blocking of MK-801 neurotoxicity / vacuole formation: tested against MK-801; for ED50: 4 h
Method: For each test agent, at least 5 dosages of the candidate safener agent were tested, and at least 4 rats were used in each dosage group.
The rats were sacrificed four hours after treatment, for histopathological evaluation. The number of vacuolated PC/RS neurons were counted on each side of the brain, at a rostrocaudal level immediately posterior to where the corpus callosum ceases decussating across the midline (approximately 5.6 mm caudal to bregma).
The result was subtracted from one and multiplied by 100, to calculate a percentage.
The confidence limits, in the right column, were the safener dosages that reduced vacuoles by 25% and 75%.

[3] = test system: sigma receptors; conditions: cited from earlier work
[4] = test system: NMDA receptors in the hypothalamus; experiment: NMDA receptor hyperactivation in the hypothalamic-pituitary neuroendocrine regulatory system; conditions: for damage to the reproductive regulatory (NMDA receptor) system: high dose, rats
Method: The explanation for this is that normally, neurons in the hypothalamus that have NMDA receptors on their surface are activated by the excitatory transmitter, glutamate, which causes them to send a message to the pituitary resulting in pituitary release of LH. When NMDA is administered, it enters the hypothalamus and mimics glutamate by acting at the same NMDA receptors that glutamate would activate. This triggers the same sequence of events that glutamate would normally trigger. The action of glutamate at these NMDA receptors represents a physiological mechanism by which glutamate normally regulates the amount of reproductive hormones (e.g., LH) that circulate in the blood. For a detailed review describing this neuroendocrine regulatory system, see Olney and Price 1978.
These excitotoxic molecules (NMDA or glutamate) enter the hypothalamus and hyperactivate NMDA receptors so vigorously and continuously that it destroys the NMDA receptor system, and leaves it permanently unresponsive to subsequent stimulation, either by exogenously administered NMDA, or by endogenous glutamate.
Affected animals develop a neuroendocrine deficiency syndrome, which leads to symptoms such as obesity, sterility, and ongoing degeneration of their reproductive organs.

[5] = test system: pyramidal neurons in layers III and IV of the posterior cingulate and retrosplenial (PC/RS) cortices; conditions: rat, in vivo; for neurotoxic (vacuole) reaction in PC/RS cortex, drug by itself: ip
[6] = test system: pyramidal neurons in layers III and IV of the posterior cingulate and retrosplenial (PC/RS) cortices; experiment: In vivo assay of toxic side effects of NMDA antagonists (vacuole formation in PC/RS cortex)
[7] = test system: neurons in neocortical and limbic brain regions; experiment: Histopathology of rat brain after PCP/pilocarpine treatment; type: in vivo; conditions: even at very high dosages
Method: Adult female rats were injected subcutaneously with an NMDA antagonist drug, phencyclidine (PCP), at 50 milligrams of drug per kilogram of body weight (mg/kg sc), accompanied by a small dose of a muscarinic agonist, pilocarpine (10 mg/kg sc). At various times (4, 16, 24, 48, 72 and 96 hours) after treatment, the rats were anesthetized and perfused with fixative to allow their brains to be prepared for histological evaluation.
Degenerating neurons in various brain regions were also examined by electron microscopy, to obtain evidence for loss of synaptic complexes, and a computer-assisted cell plotting system was used to plot the location and count the frequency with which degenerating neurons were found in each brain region.
Massive loss of neurons throughout many neocortical and limbic brain regions is a hallmark characteristic of Alzheimer's disease. To establish that the NR/hypo mechanism results not only in cell injury but in cell death, the Applicants systematically examined the brains of rats 4 days following PCP/pilocarpine treatment. Sections prepared at 1 millimeter intervals from one side of the brain were stained, using hematoxylin and eosin; sections prepared at 1 millimeter intervals from the other side of the brain were stained using a silver impregnation stain. […]

[8] = test system: cerebrocortical neurons; conditions: Olney et al 1989, Corso et al 1994; cited from earlier work
[9] = NMDA 40 μM, chick embryo retinal tissue
[10] = dose reducing mean number of vacuolated PC/RS neurons to 50% of MK-801 (0.5 mg/kg sc) controls, rats

Compound: O=[N+]([O-])c1cc2nc(O)c(O)nc2cc1[N+](=O)[O-] [DNQX]
- POTENCY RATING = minimum concentration required to provide total protection against neurotoxic effects of NMDA [1, 9]: 100 µM

Compound: FC(F)OC(Cl)C(F)(F)F (stereo not drawn) [isoflurane]
- blocking of MK-801 neurotoxicity / vacuole formation [2]: effectively block vacuole formation

Compound: N=C(N)N/N=C/c1c(Cl)cccc1Cl [Guanabenz]
- ED50 ([2]; Rattus norvegicus, Neuron, sc): 0.21 mg/kg

Compound: CC(C)c1cccc(C(C)C)c1O [propofol]
- blocking of MK-801 neurotoxicity / vacuole formation [2]: effectively block vacuole formation

Compound: CN1CCN(C2=Nc3cc(F)ccc3Cc3ccccc32)CC1 [Fluperlapine]
- ED50 ([2]; Rattus norvegicus, Neuron, sc): 2.4 mg/kg

Compound: OC(CCN1CCCCC1)(c1ccccc1)C1CCCCC1 (stereo not drawn) [Trihexyphenidyl]
- ED50 ([2]; Rattus norvegicus, Neuron, sc): 2.14 mg/kg
- binding at sigma receptors [3]: strong binding affinity not only to muscarinic receptors, but also to sigma receptors

Compound: COc1cc(CC(C)N)c(OC)cc1I (stereo not drawn) [DOI]
- ED50 [2, 10]: 1.05 mg/kg, ip

Compound: O=C(O)C1CN(CCCP(=O)(O)O)CCN1 (stereo not drawn) [CPP]
- POTENCY RATING = minimum concentration required to provide total protection against neurotoxic effects of NMDA [1, 9]: 10 µM

Compound: N#Cc1cc2[nH]c(=O)c(=O)[nH]c2cc1[N+](=O)[O-] [CNQX]
- POTENCY RATING = minimum concentration required to provide total protection against neurotoxic effects of NMDA [1]: 200 µM

Compound: CC(Oc1c(Cl)cccc1Cl)C1=NCCN1 (stereo not drawn) [Lofexidine]
- ED50 ([2]; Rattus norvegicus, Neuron, sc): 0.38 mg/kg

Compound: CCN(CC)C(=O)N[C@H]1C=C2c3cccc4[nH]cc(c34)C[C@H]2N(C)C1 [Lisuride]
- blocking of MK-801 neurotoxicity / vacuole formation [2]: block MK-801 toxicity

Compound: O=C(CCCN1CCC(O)(c2ccc(Cl)cc2)CC1)c1ccc(F)cc1 [Haloperidiol]
- ED50 ([2]; Rattus norvegicus, Neuron, sc): 5.1 mg/kg

Compound: COc1cc(CC(C)N)c(OC)cc1Br (stereo not drawn) [DOB]
- ED50 [2, 10]: 0.36 mg/kg, ip

Compound: CN[C@H](CC(=O)O)C(=O)O [NMDA, n-methyl-D-aspartate]
- pituitary secretion of reproductive hormones (LH) ([4]; NMDA subcutaneously or intravenously, rodents): causing the pituitary gland to secrete into the blood certain reproductive hormones such as luteinizing hormone
- damage to the reproductive regulatory (NMDA receptor) system [4]: permanently damage and inactivate this reproductive regulatory system

Compound: OC(CCN1CCCC1)(c1ccccc1)C1CCCCC1 (stereo not drawn) [Procyclidine]
- POTENCY RATING = minimum concentration required to provide total protection against neurotoxic effects of NMDA [1, 9]: 15 µM

Compound: C[C@@H]1CN(CCCn2c3ccccc3c3ccccc32)C[C@H](C)N1 [Rimcazole]
- ED50 ([2]; Rattus norvegicus, Neuron, sc): 17.8 mg/kg

Compound: COc1ccc2c(c1)[C@]13CCCC[C@@H]1[C@H](C2)N(C)CC3 [Dextromethorphan]
- POTENCY RATING = minimum concentration required to provide total protection against neurotoxic effects of NMDA [1, 9]: 25 µM

Compound: N[C@H](CCCP(=O)(O)O)C(=O)O [D-AP5, D-2-amino-5-phosphonopentanoic acid]
- POTENCY RATING = minimum concentration required to provide total protection against neurotoxic effects of NMDA [1, 9]: 25 µM

Compound: OC(CN1CCC(Cc2ccc(F)cc2)CC1)c1ccc(Cl)cc1 (stereo not drawn) [Eliprodil]
- NMDA antagonist properties in the chick retina assay [1]: definite NMDA antagonist properties
- POTENCY RATING = minimum concentration required to provide total protection against neurotoxic effects of NMDA [1]: 30 µM
- neurotoxic (vacuole) reaction in PC/RS cortex, drug by itself ([5]; female, Sprague Dawley, 4 h): neither SKF (+)10,047 by itself, nor eliprodil by itself, caused a vacuole reaction
- neurotoxic reaction in the PC/RS cortex at the highest dose tested [5]: did not cause a neurotoxic reaction
- neurotoxic (vacuole) reaction in PC/RS cortex, drug by itself [5]: did not cause this neurotoxic reaction
- binding at sigma receptors [3]: strong binding activity at sigma receptors
- nearly a lethal dose (highest dose tested) ([6]; rats): 100 mg/kg/ip

Compound: C=CCC1(C(C)CCC)C(=O)NC(=O)NC1=O (stereo not drawn) [Secobarbital]
- ED50 ([2]; Rattus norvegicus, Neuron, sc): 15.3 mg/kg

Compound: CN1[C@@H]2C[C@@H](OC(=O)[C@H](CO)c3ccccc3)C[C@H]1[C@@H]1O[C@@H]12 [Scopolamine]
- ED50 ([2]; Rattus norvegicus, Neuron, sc): 0.13 mg/kg

Compound: Ibogaine
- NMDA antagonist properties in the chick retina assay [1]: definite NMDA antagonist properties
- POTENCY RATING = minimum concentration required to provide total protection against neurotoxic effects of NMDA [1, 9]: 15 µM
- binding at sigma receptors [3]: strong binding affinity at sigma receptors

Compound: CN1C(=O)CN=C(c2ccccc2)c2cc(Cl)ccc21 [Diazepam]
- ED50 ([2]; Rattus norvegicus, Neuron, sc): 1 mg/kg

Compound: CN1CCN(C2=Nc3cc(Cl)ccc3Nc3ccccc32)CC1 [Clozapine]
- ED50 ([2]; Rattus norvegicus, Neuron, sc): 2.8 mg/kg

Compound: FC(F)(F)C(Cl)Br (stereo not drawn) [halothane]
- blocking of MK-801 neurotoxicity / vacuole formation [2]: effectively block vacuole formation

Compound: CN1[C@@H]2CC[C@H]1C[C@@H](OC(c1ccccc1)c1ccccc1)C2 [Benztropine]
- ED50 ([2]; Rattus norvegicus, Neuron, sc): 1.29 mg/kg

Compound: C[C@]12N[C@H](Cc3ccccc31)c1ccccc12 [MK-801, (+)-5-methyl-10,11-dihydro-5H-di[a,d]-cyclohepten-5,10-imine]
- neurotoxic reaction induced by MK-801 ([2]; MK-801 0.5 mg/kg sc, all treated rats): fully developed neurotoxic reaction

Compound: CC(C(O)c1ccc(O)cc1)N1CCC(Cc2ccccc2)CC1 (stereo not drawn) [Ifenprodil]
- POTENCY RATING = minimum concentration required to provide total protection against neurotoxic effects of NMDA [1]: 50 µM

Compound: Clc1cccc(Cl)c1N=C1NCCN1 [Clonidine]
- ED50 ([2]; Rattus norvegicus, Neuron, sc): 0.044 mg/kg

Compound: CCCC(C)C1(CC)C(=O)NC(=O)NC1=O (stereo not drawn) [Pentobarbital]
- ED50 ([2]; Rattus norvegicus, Neuron, sc): 13.1 mg/kg

Compound: Cc1cc2c(s1)Nc1ccccc1N=C2N1CCN(C)CC1 [Olanzapine]
- ED50 ([2]; Rattus norvegicus, Neuron, sc): 0.6 mg/kg

Compound: Clc1cc(I)cc(Cl)c1NC1=NCCN1 [p-Iodoclonidine]
- ED50 [2, 10]: 1.3 mg/kg, ip

Compound: C=CCN1CC[C@]2(C)c3cc(O)ccc3C[C@H]1[C@H]2C [SKF (+)10,047]
- neurotoxic (vacuole) reaction in PC/RS cortex, drug by itself ([6]; adult female rats, ip, sacrificed four hours after treatment): neither SKF (+)10,047 by itself, nor eliprodil by itself, caused a vacuole reaction; also recorded: neither SKF (+)10,047 nor ibogaine by itself caused vacuoles

Compound: CC[C@@H]1C(=O)OC[C@@H]1Cc1cncn1C [pilocarpine]
- brain damage by pilocarpine by itself [7]: does not and cannot cause the type of damage observed in these tests

Compound: O=C(O)c1cc(O)c2ccc(Cl)cc2n1 [7-CL-Kynurenic acid, 7-chloro-kynurenic acid]
- POTENCY RATING = minimum concentration required to provide total protection against neurotoxic effects of NMDA [1]: 50 µM

Compound: CCNC1(c2cccs2)CCCCC1=O (stereo not drawn) [Tiletamine]
- POTENCY RATING = minimum concentration required to provide total protection against neurotoxic effects of NMDA [1, 9]: 5 µM
- pathological changes in cerebral cortex / corticolimbic regions of adult rats [8]: cause pathological changes in the cerebral cortex of adult rats

Compound: N[C@@H](CCC(=O)O)C(=O)O [glutamate]
- damage to the reproductive regulatory (NMDA receptor) system [4]: permanently damage and inactivate this reproductive regulatory system

Compound: CSc1ccc2c(c1)N(CCC1CCCCN1C)c1ccccc1S2 (stereo not drawn) [Thioridazine]
- ED50 ([2]; Rattus norvegicus, Neuron, sc): 55.3 mg/kg

Compound: O=C(O)[C@@H]1C[C@H](CP(=O)(O)O)CCN1 [CGS 19755]
- POTENCY RATING = minimum concentration required to provide total protection against neurotoxic effects of NMDA [1, 9]: 5 µM
